Test results as given in patent publication US10471046B2, “Method for treating, preventing, or reducing the risk of skin infection” (Melinta Subsidiary Corp., priority 2014, dated 2019).
≈ marks a conversion by molar mass, not a printed value.

Tested on: S. aureus
Assay: Minimum inhibitory concentrations (MICs) for S. aureus of exemplary compounds (Table 2)
Format: cell-based
Settings: Staphylococcus aureus, minimum inhibitory concentrations for S. aureus; read-out: MICs
Summary of the method: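 Growth of S. aureus in media with or without compound, by broth microdilution in microtiter trays following NCCLS M7-A5 guidelines. Values are MICs in μg/mL.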

SMILES	MIC
CC(=O)NC[C@H]1CN(c2ccc(-c3ccc(CNC(=O)Nc4ccncc4)cc3)c(F)c2)C(=O)O1 [Compound 5012, N-(3-{2-Fluoro-4′-[(3-pyridin-4-yl-ureido)-methyl]-biphenyl-4-yl}-2-oxo-oxazolidin-5-(S)-ylmethyl)-acetamide]	2 µg/mL (≈ 4.19 µM)
CSc1nc(CNCc2ccc(-c3ccc(N4C[C@H](CNC(C)=O)OC4=O)cc3F)cc2)ccc1C#N [Compound 4128, N-[3-(4′-{[(5-Cyano-6-methylsulfanyl-pyridin-2-ylmethyl)-amino]-methyl}-2-fluoro-biphenyl-4-yl)-2-oxo-oxazolidin-5-(S)-ylmethyl]-acetamide]	0.5 µg/mL (≈ 0.962 µM)
CC(=O)NC[C@H]1CN(c2ccc(-c3ccc(CNCc4cnco4)cc3)c(F)c2)C(=O)O1 [Compound 4208, N-[3-(2-Fluoro-4′-{[(oxazol-5-ylmethyl)-amino]-methyl}-biphenyl-4-yl)-2-oxo-oxazolidin-5-(S)-ylmethyl]-acetamide]	1 µg/mL (≈ 2.28 µM)
CC(=O)NC[C@H]1CN(c2ccc(-c3ccc(CSc4ncc[nH]4)cc3)c(F)c2)C(=O)O1 [Compound 2032, N-{3-[2-Fluoro-4′-(1H-imidazol-2-ylsulfanylmethyl)-biphenyl-4-yl]-2-oxo-oxazolidin-5-(S)-ylmethyl}-acetamide]	1 µg/mL (≈ 2.27 µM)
CC(=O)NC[C@H]1CN(c2ccc(-c3ccc(CNCc4ccc(Br)cn4)cc3)c(F)c2)C(=O)O1 [Compound 4182, N-[3-(4′-{[(5-Bromo-pyridin-2-ylmethyl)-amino]-methyl}-2-fluoro-biphenyl-4-yl)-2-oxo-oxazolidin-5-(S)-ylmethyl]-acetamide]	2 µg/mL (≈ 3.79 µM)
CC(=O)NC[C@H]1CN(c2ccc(-c3ccc(CNCc4ccc(S(N)(=O)=O)cc4)cc3)c(F)c2)C(=O)O1 [Compound 4093, N-(3-{2-Fluoro-4′-[(4-sulfamoyl-benzylamino)-methyl]-biphenyl-4-yl}-2-oxo-oxazolidin-5-(S)-ylmethyl)-acetamide]	8 µg/mL (≈ 15.2 µM)
CC(=O)NC[C@H]1CN(c2ccc(-c3ccc(CNCc4ccc(-n5cccc5)cc4)cc3)c(F)c2)C(=O)O1 [Compound 4147, N-(3-{2-Fluoro-4′-[(4-pyrrol-1-yl-benzylamino)-methyl]-biphenyl-4-yl}-2-oxo-oxazolidin-5-(S)-ylmethyl)-acetamide]	4 µg/mL (≈ 7.8 µM)
CC(=O)NC[C@H]1CN(c2ccc(-c3ccc(CNC(=O)C4CNCCN4)cc3)c(F)c2)C(=O)O1 (mixture of isomers) [Compound 4322, Piperazine-2-(R/S)-carboxylic acid {4′-[5-(S)-(acetylamino-methyl)-2-oxo-oxazolidin-3-yl]-2′-fluoro-biphenyl-4-ylmethyl}-amide]	2 µg/mL
CSc1ccc(CNCc2ccc(-c3ccc(N4C[C@H](CNC(C)=O)OC4=O)cc3F)cc2)s1 [Compound 4167, N-[3-(2-Fluoro-4′-{[(5-methylsulfanyl-thiophen-2-ylmethyl)-amino]-methyl}-biphenyl-4-yl)-2-oxo-oxazolidin-5-(S)-ylmethyl]-acetamide]	2 µg/mL (≈ 4 µM)
CC(=O)NC[C@H]1CN(c2ccc(-c3ccc(CNC(=O)[C@@H](Cc4c[nH]c5ccccc45)NC(=O)OC(C)(C)C)cc3)c(F)c2)C(=O)O1 [Compound 4308, [1-(R)-({4′-[5-(S)-(Acetylamino-methyl)-2-oxo-oxazolidin-3-yl]-2′-fluoro-biphenyl-4-ylmethyl}-carbamoyl)-2-(1H-indol-3-yl)-ethyl]-carbamic acid tert-butyl ester]	128 µg/mL (≈ 199 µM)
CC(=O)NC[C@H]1CN(c2ccc(-c3ccc(CNCc4ccc(N(C)C)cc4)cc3)c(F)c2)C(=O)O1 [Compound 4062, N-(3-{4′-[(4-Dimethylamino-benzylamino)-methyl]-2-fluoro-biphenyl-4-yl}-2-oxo-oxazolidin-5-(S)-ylmethyl)-acetamide]	2 µg/mL (≈ 4.08 µM)
CC(=O)NC[C@H]1CN(c2ccc(-c3ccc(CN4CCN(CC#N)CC4)c(F)c3)c(F)c2)C(=O)O1 [Compound 1005, N-{3-[4′-(4-Cyanomethyl-piperazin-1-ylmethyl)-2,3′-difluoro-biphenyl-4-yl]-2-oxo-oxazolidin-5-(S)-ylmethyl}-acetamide]	2 µg/mL (≈ 4.14 µM)
CC(=O)NC[C@H]1CN(c2ccc(-c3ccc(CNCCC4CCCN4C)cc3)c(F)c2)C(=O)O1 (mixture of isomers) [Compound 4150, N-[3-(2-Fluoro-4′-{[2-(R/S)-(1-methyl-pyrrolidin-2-yl)-ethylamino]-methyl}-biphenyl-4-yl)-2-oxo-oxazolidin-5-(S)-ylmethyl]-acetamide]	16 µg/mL
CC(=O)NC[C@H]1CN(c2ccc(-c3ccc(C(=O)NCCc4cnc[nH]4)cc3)c(F)c2)C(=O)O1 [Compound 4116, 4′-[5-(S)-(Acetylamino-methyl)-2-oxo-oxazolidin-3-yl]-2′-fluoro-biphenyl-4-carboxylic acid [2-(3H-imidazol-4-yl)-ethyl]-amide]	1 µg/mL (≈ 2.15 µM)
CC(=O)NC[C@H]1CN(c2ccc(-c3cc(C)c(CNCc4ccncc4)cc3C)c(F)c2)C(=O)O1 [Compound 4176, N-[3-(2-Fluoro-2′,5′-dimethyl-4′-{[(pyridin-4-ylmethyl)-amino]-methyl}-biphenyl-4-yl)-2-oxo-oxazolidin-5-(S)-ylmethyl]-acetamide]	128 µg/mL (≈ 269 µM)
CC(=O)NC[C@H]1CN(c2ccc(-c3ccc(CNCc4nnn[nH]4)cc3)c(F)c2)C(=O)O1 [Compound 4282, N-[3-(2-Fluoro-4′-{[(1H-tetrazol-5-ylmethyl)-amino]-methyl}-biphenyl-4-yl)-2-oxo-oxazolidin-5-(S)-ylmethyl]-acetamide]	16 µg/mL (≈ 36.4 µM)
CC(=O)NC[C@H]1CN(c2ccc(-c3ccc(CNCC4CCC=CO4)cc3)c(F)c2)C(=O)O1 (stereo partly drawn) [Compound 4131, N-[3-(4′-{[(3,4-Dihydro-2H-pyran-2-ylmethyl)-amino]-methyl}-2-fluoro-biphenyl-4-yl)-2-oxo-oxazolidin-5-(S)-ylmethyl]-acetamide]	1 µg/mL (≈ 2.21 µM)
CCc1ccc(CNCc2ccc(-c3ccc(N4C[C@H](CNC(C)=O)OC4=O)cc3F)cc2)o1 [Compound 4161, N-[3-(4′-{[(5-Ethyl-furan-2-ylmethyl)-amino]-methyl}-2-fluoro-biphenyl-4-yl)-2-oxo-oxazolidin-5-(S)-ylmethyl]-acetamide]	2 µg/mL (≈ 4.3 µM)
CC(=O)NC[C@H]1CN(c2ccc(-c3ccc(CNCc4c(C)nn(C)c4Cl)cc3)c(F)c2)C(=O)O1 [Compound 4126, N-[3-(4′-{[(5-Chloro-1,3-dimethyl-1H-pyrazol-4-ylmethyl)-amino]-methyl}-2-fluoro-biphenyl-4-yl)-2-oxo-oxazolidin-5-(S)-ylmethyl]-acetamide]	0.5 µg/mL (≈ 1 µM)
CC(=O)NC[C@H]1CN(c2ccc(-c3ccc([C@H](O)CN(CCS(C)(=O)=O)Cc4ccccc4)cc3)c(F)c2)C(=O)O1 [Compound 4286, N-[3-(4′-{2-[Benzyl-(2-methanesulfonyl-ethyl)-amino]-1-(S)-hydroxy-ethyl}-2-fluoro-biphenyl-4-yl)-2-oxo-oxazolidin-5-(S)-ylmethyl]-acetamide]	2 µg/mL (≈ 3.43 µM)

Same assay, conditions: Staphylococcus aureus, read-out: MICs

SMILES	MIC
CC(=O)NC[C@H]1CN(c2cc(F)c(-c3ccc(Cn4cc(CO)nn4)cc3)c(F)c2)C(=O)O1 [Compound 1018, N-{3-[2,6-Difluoro-4′-(4-hydroxymethyl-[1,2,3]triazol-1-ylmethyl)-biphenyl-4-yl]-2-oxo-oxazolidin-5-(S)-ylmethyl}-acetamide]	1 µg/mL (≈ 2.19 µM)
